Reference: PMC8116589, “Distinguishing Signal From Noise in Immunopeptidome Studies of Limiting-Abundance Biological Samples: Peptides Presented by I-A^b in C57BL/6 Mouse Thymus” (Frontiers in Immunology, 2021)
Where no end group is shown, it is not given here. [ ]: non-standard residue; d: D form.

T1: I-A^b (Mus musculus, UniProt P14434+P14483)
T1 sequence (P14434 24-218 limits assumed): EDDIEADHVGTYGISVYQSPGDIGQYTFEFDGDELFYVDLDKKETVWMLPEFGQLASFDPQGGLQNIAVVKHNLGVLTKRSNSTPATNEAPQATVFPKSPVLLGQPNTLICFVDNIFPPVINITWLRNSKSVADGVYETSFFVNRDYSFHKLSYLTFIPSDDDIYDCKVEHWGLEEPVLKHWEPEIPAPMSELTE
T1 sequence (P14483 28-226 limits assumed): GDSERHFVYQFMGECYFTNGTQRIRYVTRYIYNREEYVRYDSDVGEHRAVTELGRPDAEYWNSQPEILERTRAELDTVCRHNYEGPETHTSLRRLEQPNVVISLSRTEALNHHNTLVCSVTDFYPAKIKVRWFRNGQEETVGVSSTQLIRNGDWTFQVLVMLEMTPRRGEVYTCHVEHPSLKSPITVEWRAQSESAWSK

B1: … (H-2 class II histocompatibility antigen, A beta chain peptide) (peptide)
peptide: HNYEGPETHTSLRRL
B2: … (L-amino-acid oxidase isoform 2 peptide) (peptide)
peptide: GALLLNAPVVSITQGR
B3: … (Tenascin peptide) (peptide)
peptide: ATVSWRAPTAQVESFR
B4: … (Gelsolin isoform 2 peptide) (peptide)
peptide: AMLQVLGPKPALPEG
B5: … (Murinoglobulin-1 peptide) (peptide)
peptide: GKYTYGKPVPGHVKI
B6: … (B-cell antigen receptor complex-associated protein alpha chain peptide) (peptide)
peptide: PGQGTTGQLFFPEVNKN
B7: … (Gelsolin isoform 2 peptide) (peptide)
peptide: AAYLWVGAGASEAEKT
B8: … (Semaphorin-4D peptide) (peptide)
peptide: GRKFVYAGSNSGVVQ
B9: … (Prostaglandin-H2 D-isomerase isoform 2 peptide) (peptide)
peptide: APGHYTYSSPHSGSIH
B10: … (Heat shock protein HSP 90-beta peptide) (peptide)
peptide: LSSGFSLEDPQTHSNRIY
B11: … (Ig mu chain C region peptide) (peptide)
peptide: LPQEKYVTSAPMPEPG
B12: … (Serum albumin peptide) (peptide)
peptide: LVRYTQKAPQVSTPTLV
B13: … (78 kDa glucose-regulated protein peptide) (peptide)
peptide: ITPSYVAFTPEGERL
B14: … (Nucleophosmin peptide) (peptide)
peptide: VEEDAESEDEDEEDVKLLGMSGK
B15: …mV (Murinoglobulin-1 peptide) (peptide)
peptide: LEISYTGSRPASN[code m]V
modifications: not fully specified; printed as LEISYTGSRPASNmV (Murinoglobulin-1 peptide)
B16: … (Protein shisa-5 isoform 2 peptide) (peptide)
peptide: GPPPYHESLAGASQPP
B17: … (H-2 class II histocompatibility antigen, A beta chain peptide) (peptide)
peptide: SLRRLEQPNVVISLSR
B18: … (Platelet endothelial cell adhesion molecule isoform 4 peptide) (peptide)
peptide: KPSIFHDAKSEIIKGHA
B19: … (Sortilin-related receptor peptide) (peptide)
peptide: GIDPYDQPNAIYIER
B20: … (TGF-beta receptor type-2 peptide) (peptide)
peptide: VGTARYMAPEVLESR
B21: … (NEDD4 family-interacting protein 1 peptide) (peptide)
peptide: FPKPPSYNVATTLPSYDE
B22: … (Alpha-enolase peptide) (peptide)
peptide: PSRYITPDQLADLYK
B23: … (B-cell differentiation antigen CD72 peptide) (peptide)
peptide: DGELTYENVQVSPVPGGPP
B24: … (Sortilin-related receptor peptide) (peptide)
peptide: RVLIPYQGPSSDYVVVK
B25: … (Hematological and neurological expressed 1 protein peptide) (peptide)
peptide: EKPVPAAPVPSPVAPAP
B26: … (B-cell antigen receptor complex-associated protein alpha chain peptide) (peptide)
peptide: GTTGQLFFPEVNKNHR
B27: … (Beta-2-microglobulin peptide) (peptide)
peptide: YVTQFHPPHIEIQ
B28: q… (Complement C3 peptide) (peptide)
peptide: QQLAFKQPSSAYAAFN
B29: … (Apolipoprotein E peptide) (peptide)
peptide: TNPIITPVAQENQ
B30: … (TGF-beta receptor type-2 peptide) (peptide)
peptide: VGTARYMAPEVLESRM
B31: … (Alpha-enolase peptide) (peptide)
peptide: HIADLAGNPEVILPVPA
B32: … (Complement C4-B peptide) (peptide)
peptide: ARYIYGKPVQGVAYTR

Tests used:
[1] = biological target: T1, I-A^b; experiment: biochemical
Experimental: A fluorescence polarization (FP) assay was used to measure the IC50 of using N-terminally-acetylated CLIP peptide labeled with Alexa Fluor 488 tetrafluorophenyl ester (Invitrogen, Carlsbad, CA) via the primary amine at K3 as probe peptide as previously described ([34]). The binding reactions were carried in buffer conditions of 100 mM sodium citrate, 50 mM sodium chloride, 0.1% octyl β-D-glucopyranoside, 5 mM ethylenediaminetetraacetic acid, 0.1% sodium azide, 0.2 mM iodoacetic acid, 1 mM dithiothreitol). […] Thrombin is added during all the reactions at a concentration of 1U/ug and inactivated after 3hrs of reaction using 0.1mM phenylmethanesulfonyl fluoride. […] For calculating IC50 values, 100 nM I-A^b-3R was incubated with 25 nM Alexa488-labeled CLIP probe peptide, in combination with a serial dilution of test peptides, beginning at 100 µM followed by 5-fold dilutions in presence of 0.5µM HLA-DM. The reaction mixture was incubated at 37°C. The capacity of each test peptide to compete for binding of probe peptide was measured by FP after 72 h at 37°C. The assay was read using a Victor X5 Multilabel plate reader (PerkinElmer, Shelton, CT). FP values were converted to fraction bound by calculating [(FP_sample - FP_free)/(FP_no_comp - FP_free)], where FP_sample represents the FP value in the presence of test peptide; FP_free represents the value for free Alexa488-conjugated CLIP peptide; and FP_no_comp represents values in the absence of competitor peptide. We plotted fraction bound versus concentration of test peptide and fit the curve to the equation y = 1/(1 +[pep]/IC50), where [pep] is the concentration of test peptide, y is the fraction of probe peptide bound at that concentration of test peptide, and IC50 is the 50% inhibitory concentration of the test peptide.

[2] = biological target: soluble I-A^b-3R, mouse MHC-II protein (recombinant I-A^b) (mouse); experiment: fluorescence polarisation; competition: 100 nM I-A^b-3R (3R cut off by thrombin, 1 U/ug), 25 nM Alexa488-labeled CLIP probe peptide, test peptide from 100 uM in 5-fold dilutions, 0.5 uM HLA-DM, read after 72 h at 37 C; 100 mM sodium citrate, 50 mM NaCl, 0.1% octyl glucoside, 5 mM EDTA, 1 mM DTT; three independent experiments, mean and SD

Molecule	IC50 [1] [nM]	IC50 [2] [nM]
NVLRIINEPTAAAIA	337	–
SLRRLEQPNVVISLSR	93.8	–
KPTVTVVSPLPNDSINPQP	2250	–
LNLPTGIPIVYEL	54400	–
GIDPYDQPNAIYIER	167	–
APGHYTYSSPHSGSIH	1580	–
EKPVPAAPVPSPVAPAP	1140	–
KWKALYTDPKSSETA	3450	–
HIADLAGNPEVILPVPA	13900	–
YSMGMHTYQVG	74100	–
VGTARYMAPEVLESR	197	–
AAYLWVGAGASEAEKT	276	–
GPPPYHESLAGASQPP	1500	–
LLPKYSFAKPSIVSDK	179	–
GGSTDYNAAFISRLS	4960	–
PGQGTTGQLFFPEVNKN	2900	–
AQRAGYKAAIVHNVDS	2420	–
TNPIITPVAQENQ	1740	–
AGKLQDQGPDVLLAKVS	378	–
GALLLNAPVVSITQGR	1660	–
VEEDAESEDEDEEDVKLLGMSGK	111000	–
ATVSWRAPTAQVESFR	407	–

Molecule	IC50 [1] [nM]	IC50 [2] [nM]
DGELTYENVQVSPVPGGPP	1360	–
GTTGQLFFPEVNKNHR	2640	–
GRKFVYAGSNSGVVQ	1480	–
KPSIFHDAKSEIIKGHA	4960	–
QVLSWSSPVGSRTLA	152	–
ARYIYGKPVQGVAYTR	153	–
APTSALGPKASPAPS	2300	–
LPGELAKHAVSEGTKA	32000	–
PHPYPALTPEQKKELSDIAHRIVAPGKG	10900	–
KDITTVNFPPALASGGG	970	–
HNYEGPETHTSLRRL	797	–
GKYTYGKPVPGHVKI	399	–
AGTGVDNVDLEAATR	57500	–
LVRYTQKAPQVSTPTLV	765	–
GIVNLKSPKTTSATKI	12800	–
IYEAYRQGQANLEAL [IYEAYRQGQANLEAL]	1370	–
RVLIPYQGPSSDYVVVK	275	–
AMLQVLGPKPALPEG	1170	–
SDLHAFSGSAAWDDS	1090	–
VGTARYMAPEVLESRM	306	–
YVTQFHPPHIEIQ	1070	–
PSRYITPDQLADLYK	2910	–

Molecule	IC50 [1] [nM]	IC50 [2] [nM]
SDLHAFSGSAAWDDSAG	1920	–
GPGSREAASPVAITVQE	467	–
AVLLPKKSSATVGPKAPAVGK	13600	–
LPQEKYVTSAPMPEPG	562	–
RVTIAQGGVLPNIQ	26000	–
LSSGFSLEDPQTHSNRIY	13300	–
FPKPPSYNVATTLPSYDE	231	–
NDWTVDHPQTLFAWEG	445	–
ISKQEYDESGPSIVHR	15200	–
HLNTYDGSHTLRVSQS	1360	–
IRRYGVSQPDAVAAWK	250	–
ITPSYVAFTPEGERL	1890	–
B1	–	797
B2	–	1660
B3	–	407
B4	–	1180
B5	–	399
B6	–	2900
B7	–	276
B8	–	1480
B9	–	1580
B10	–	13300

Molecule	IC50 [1] [nM]	IC50 [2] [nM]
B11	–	562
B12	–	765
B13	–	1890
B14	–	111000
B15	–	349
B16	–	1500
B17	–	93.8
B18	–	4960
B19	–	167
B20	–	197
B21	–	231
B22	–	2910
B23	–	1360
B24	–	275
B25	–	1140
B26	–	2640
B27	–	1070
B28	–	170
B29	–	1740
B30	–	306
B31	–	13900
B32	–	153
